From patent EP4548971A1, “1,4-BENZOTHIAZEPINES AND RELATED COMPOUNDS WITH CYCLOPROPANOL GROUPS AS MULTI-TARGETED DRUGS” (Georg-August-Universität Göttingen Stiftung Öffentlichen …, priority 2023, dated 2025) come the findings set out here.

SMILES strings stand for the structures.

Usually EC50 stands for the concentration at which the effect is half-maximal.

This experiment has as its target T1, WT RyR2 (Mus musculus, UniProt E9Q401).
T1 construct: expressed in transfected cells
In words: Time-lapse [Ca2+]ER assay (RyR2 R-CEPIA1er assay) in HEK-293 cells. The settings on record: for RyR2 effect class: 25 µM in RyR2 R-CEPIA1er assay; for effect on [Ca^2+]ER (R-CEPIA1er fluorescence), in words: 25 µM, vs. 0.1 v/v% DMSO; for EC50: HEK-293 WT RyR2 R-CEPIA1er cells, range after the semicolon is not explained. In kind it is cell-based. Here is the method: HEK-293 cells stably expressing R-CEPIA1er and WT RyR2 (generous gift from Takashi Murayama, Juntendo University School of Medicine, Tokyo) were cultured in Dulbecco's Modified Eagle medium (DMEM, Thermo Fisher Scientific, Darmstadt, Germany) supplemented with 10% fetal bovine serum (FBS, Thermo Fisher Scientific, Darmstadt, Germany), 0.9% Penicillin/Streptomycin (Merck KGaA, Darmstadt, Germany), 15ug/mL Blasticidine (Invivogen, Toulouse, France), 100 µg/mL Hygromycin (Merck KGaA, Darmstadt, Germany) and 400 µg/mL G418 (Thermo Fisher Scientific, Darmstadt, Germany) in a humidified 5% COz incubator at 37 °C. To induce the expression of WT RyR2 in the endoplasmic reticulum (ER), 2 µg/mL Doxycycline (Merck KGaA, Darmstadt, Germany) was added 24 h before experiments.
The fluorescent plate reader [Ca^2+]ER assay was performed according to the slightly modified protocol of Murayama & Kurebayashi [T. Murayama, N. Kurebayashi, Assays for Modulators of Ryanodine Receptor (RyR)/Ca(2+) Release Channel Activity for Drug Discovery for Skeletal Muscle and Heart Diseases. Curr. Protoc. […] After the cells were inducted with Doxycycline for 24 h, changes in ER calcium concentrations [Ca^2+]ER were measured on a multiwell plate reader TECAN Spark 20M at 37 °C. The 1000 × stock solutions of the test compounds were prepared in DMSO. Briefly, the culture medium was removed and 100 µl of Tyrode's solution containing 2 mM CaCl2 was added to the cells. The time courses were recorded in each well. Fluorescence was evoked by 560 nm excitation wavelength and collected in a bottom-read mode at 610 nm. Data was recorded every 10 s, exposure - 20 flashes, excitation bandwidth - 20 nm, emission bandwidth - 20 nm. 100 µl of 0 - 100 µM solution of test compound in Tyrode's solution containing 2 mM CaCh was injected in each well (speed 100 µl/s) at the 90 s time point. […] The 0.1 v/v% DMSO and 2 mM CaCh Tyrode's solution was used as a control.
The dose response curves were calculated using the software package GraphPad Prism version 8.3.1. (GraphPad Software, Inc.). All data are presented as mean ± S.D. in 3 independent experiments. Y=Bottom + (Top-Bottom)/(1+10^((LogEC50-X)*HillSlope)) was used where HillSlope describes the steepness of the curve, Top and Bottom are plateaus in the units of the Y axis.
The inventors measured changes in Ca^2+ levels in the endoplasmic reticulum (ER) of HEK-293 cells with inducible expression of wild-type RyR2 (WT RyR2) [T. Murayama, N. Kurebayashi, M. Ishigami-Yuasa, S. Mori, Y. Suzuki, R. Akima, H. Ogawa, J. Suzuki, K. Kanemaru, H. Oyamada, Y. Kiuchi, M. Iino, H. Kagechika, T. Sakurai, Efficient High-Throughput Screening by Endoplasmic Reticulum Ca(2+) Measurement to Identify Inhibitors of Ryanodine Receptor Ca(2+)-Release Channels. […] The cells additionally stably express the Ca^2+ fluorescence indicator R-CEPIA1er, which is a genetically encoded sensor protein of Ca^2+ in the ER ([Ca^2+]ER) [T. Murayama, N. Kurebayashi, Assays for Modulators of Ryanodine Receptor (RyR)/Ca(2+) Release Channel Activity for Drug Discovery for Skeletal Muscle and Heart Diseases. Curr. Protoc.
The fluorescence ratio F/F0 was calculated, where F0 - is the average fluorescence for the first 90 s, F - is the average fluorescence for the last 100 s, and normalized.

T1 sequence (E9Q401 whole entry): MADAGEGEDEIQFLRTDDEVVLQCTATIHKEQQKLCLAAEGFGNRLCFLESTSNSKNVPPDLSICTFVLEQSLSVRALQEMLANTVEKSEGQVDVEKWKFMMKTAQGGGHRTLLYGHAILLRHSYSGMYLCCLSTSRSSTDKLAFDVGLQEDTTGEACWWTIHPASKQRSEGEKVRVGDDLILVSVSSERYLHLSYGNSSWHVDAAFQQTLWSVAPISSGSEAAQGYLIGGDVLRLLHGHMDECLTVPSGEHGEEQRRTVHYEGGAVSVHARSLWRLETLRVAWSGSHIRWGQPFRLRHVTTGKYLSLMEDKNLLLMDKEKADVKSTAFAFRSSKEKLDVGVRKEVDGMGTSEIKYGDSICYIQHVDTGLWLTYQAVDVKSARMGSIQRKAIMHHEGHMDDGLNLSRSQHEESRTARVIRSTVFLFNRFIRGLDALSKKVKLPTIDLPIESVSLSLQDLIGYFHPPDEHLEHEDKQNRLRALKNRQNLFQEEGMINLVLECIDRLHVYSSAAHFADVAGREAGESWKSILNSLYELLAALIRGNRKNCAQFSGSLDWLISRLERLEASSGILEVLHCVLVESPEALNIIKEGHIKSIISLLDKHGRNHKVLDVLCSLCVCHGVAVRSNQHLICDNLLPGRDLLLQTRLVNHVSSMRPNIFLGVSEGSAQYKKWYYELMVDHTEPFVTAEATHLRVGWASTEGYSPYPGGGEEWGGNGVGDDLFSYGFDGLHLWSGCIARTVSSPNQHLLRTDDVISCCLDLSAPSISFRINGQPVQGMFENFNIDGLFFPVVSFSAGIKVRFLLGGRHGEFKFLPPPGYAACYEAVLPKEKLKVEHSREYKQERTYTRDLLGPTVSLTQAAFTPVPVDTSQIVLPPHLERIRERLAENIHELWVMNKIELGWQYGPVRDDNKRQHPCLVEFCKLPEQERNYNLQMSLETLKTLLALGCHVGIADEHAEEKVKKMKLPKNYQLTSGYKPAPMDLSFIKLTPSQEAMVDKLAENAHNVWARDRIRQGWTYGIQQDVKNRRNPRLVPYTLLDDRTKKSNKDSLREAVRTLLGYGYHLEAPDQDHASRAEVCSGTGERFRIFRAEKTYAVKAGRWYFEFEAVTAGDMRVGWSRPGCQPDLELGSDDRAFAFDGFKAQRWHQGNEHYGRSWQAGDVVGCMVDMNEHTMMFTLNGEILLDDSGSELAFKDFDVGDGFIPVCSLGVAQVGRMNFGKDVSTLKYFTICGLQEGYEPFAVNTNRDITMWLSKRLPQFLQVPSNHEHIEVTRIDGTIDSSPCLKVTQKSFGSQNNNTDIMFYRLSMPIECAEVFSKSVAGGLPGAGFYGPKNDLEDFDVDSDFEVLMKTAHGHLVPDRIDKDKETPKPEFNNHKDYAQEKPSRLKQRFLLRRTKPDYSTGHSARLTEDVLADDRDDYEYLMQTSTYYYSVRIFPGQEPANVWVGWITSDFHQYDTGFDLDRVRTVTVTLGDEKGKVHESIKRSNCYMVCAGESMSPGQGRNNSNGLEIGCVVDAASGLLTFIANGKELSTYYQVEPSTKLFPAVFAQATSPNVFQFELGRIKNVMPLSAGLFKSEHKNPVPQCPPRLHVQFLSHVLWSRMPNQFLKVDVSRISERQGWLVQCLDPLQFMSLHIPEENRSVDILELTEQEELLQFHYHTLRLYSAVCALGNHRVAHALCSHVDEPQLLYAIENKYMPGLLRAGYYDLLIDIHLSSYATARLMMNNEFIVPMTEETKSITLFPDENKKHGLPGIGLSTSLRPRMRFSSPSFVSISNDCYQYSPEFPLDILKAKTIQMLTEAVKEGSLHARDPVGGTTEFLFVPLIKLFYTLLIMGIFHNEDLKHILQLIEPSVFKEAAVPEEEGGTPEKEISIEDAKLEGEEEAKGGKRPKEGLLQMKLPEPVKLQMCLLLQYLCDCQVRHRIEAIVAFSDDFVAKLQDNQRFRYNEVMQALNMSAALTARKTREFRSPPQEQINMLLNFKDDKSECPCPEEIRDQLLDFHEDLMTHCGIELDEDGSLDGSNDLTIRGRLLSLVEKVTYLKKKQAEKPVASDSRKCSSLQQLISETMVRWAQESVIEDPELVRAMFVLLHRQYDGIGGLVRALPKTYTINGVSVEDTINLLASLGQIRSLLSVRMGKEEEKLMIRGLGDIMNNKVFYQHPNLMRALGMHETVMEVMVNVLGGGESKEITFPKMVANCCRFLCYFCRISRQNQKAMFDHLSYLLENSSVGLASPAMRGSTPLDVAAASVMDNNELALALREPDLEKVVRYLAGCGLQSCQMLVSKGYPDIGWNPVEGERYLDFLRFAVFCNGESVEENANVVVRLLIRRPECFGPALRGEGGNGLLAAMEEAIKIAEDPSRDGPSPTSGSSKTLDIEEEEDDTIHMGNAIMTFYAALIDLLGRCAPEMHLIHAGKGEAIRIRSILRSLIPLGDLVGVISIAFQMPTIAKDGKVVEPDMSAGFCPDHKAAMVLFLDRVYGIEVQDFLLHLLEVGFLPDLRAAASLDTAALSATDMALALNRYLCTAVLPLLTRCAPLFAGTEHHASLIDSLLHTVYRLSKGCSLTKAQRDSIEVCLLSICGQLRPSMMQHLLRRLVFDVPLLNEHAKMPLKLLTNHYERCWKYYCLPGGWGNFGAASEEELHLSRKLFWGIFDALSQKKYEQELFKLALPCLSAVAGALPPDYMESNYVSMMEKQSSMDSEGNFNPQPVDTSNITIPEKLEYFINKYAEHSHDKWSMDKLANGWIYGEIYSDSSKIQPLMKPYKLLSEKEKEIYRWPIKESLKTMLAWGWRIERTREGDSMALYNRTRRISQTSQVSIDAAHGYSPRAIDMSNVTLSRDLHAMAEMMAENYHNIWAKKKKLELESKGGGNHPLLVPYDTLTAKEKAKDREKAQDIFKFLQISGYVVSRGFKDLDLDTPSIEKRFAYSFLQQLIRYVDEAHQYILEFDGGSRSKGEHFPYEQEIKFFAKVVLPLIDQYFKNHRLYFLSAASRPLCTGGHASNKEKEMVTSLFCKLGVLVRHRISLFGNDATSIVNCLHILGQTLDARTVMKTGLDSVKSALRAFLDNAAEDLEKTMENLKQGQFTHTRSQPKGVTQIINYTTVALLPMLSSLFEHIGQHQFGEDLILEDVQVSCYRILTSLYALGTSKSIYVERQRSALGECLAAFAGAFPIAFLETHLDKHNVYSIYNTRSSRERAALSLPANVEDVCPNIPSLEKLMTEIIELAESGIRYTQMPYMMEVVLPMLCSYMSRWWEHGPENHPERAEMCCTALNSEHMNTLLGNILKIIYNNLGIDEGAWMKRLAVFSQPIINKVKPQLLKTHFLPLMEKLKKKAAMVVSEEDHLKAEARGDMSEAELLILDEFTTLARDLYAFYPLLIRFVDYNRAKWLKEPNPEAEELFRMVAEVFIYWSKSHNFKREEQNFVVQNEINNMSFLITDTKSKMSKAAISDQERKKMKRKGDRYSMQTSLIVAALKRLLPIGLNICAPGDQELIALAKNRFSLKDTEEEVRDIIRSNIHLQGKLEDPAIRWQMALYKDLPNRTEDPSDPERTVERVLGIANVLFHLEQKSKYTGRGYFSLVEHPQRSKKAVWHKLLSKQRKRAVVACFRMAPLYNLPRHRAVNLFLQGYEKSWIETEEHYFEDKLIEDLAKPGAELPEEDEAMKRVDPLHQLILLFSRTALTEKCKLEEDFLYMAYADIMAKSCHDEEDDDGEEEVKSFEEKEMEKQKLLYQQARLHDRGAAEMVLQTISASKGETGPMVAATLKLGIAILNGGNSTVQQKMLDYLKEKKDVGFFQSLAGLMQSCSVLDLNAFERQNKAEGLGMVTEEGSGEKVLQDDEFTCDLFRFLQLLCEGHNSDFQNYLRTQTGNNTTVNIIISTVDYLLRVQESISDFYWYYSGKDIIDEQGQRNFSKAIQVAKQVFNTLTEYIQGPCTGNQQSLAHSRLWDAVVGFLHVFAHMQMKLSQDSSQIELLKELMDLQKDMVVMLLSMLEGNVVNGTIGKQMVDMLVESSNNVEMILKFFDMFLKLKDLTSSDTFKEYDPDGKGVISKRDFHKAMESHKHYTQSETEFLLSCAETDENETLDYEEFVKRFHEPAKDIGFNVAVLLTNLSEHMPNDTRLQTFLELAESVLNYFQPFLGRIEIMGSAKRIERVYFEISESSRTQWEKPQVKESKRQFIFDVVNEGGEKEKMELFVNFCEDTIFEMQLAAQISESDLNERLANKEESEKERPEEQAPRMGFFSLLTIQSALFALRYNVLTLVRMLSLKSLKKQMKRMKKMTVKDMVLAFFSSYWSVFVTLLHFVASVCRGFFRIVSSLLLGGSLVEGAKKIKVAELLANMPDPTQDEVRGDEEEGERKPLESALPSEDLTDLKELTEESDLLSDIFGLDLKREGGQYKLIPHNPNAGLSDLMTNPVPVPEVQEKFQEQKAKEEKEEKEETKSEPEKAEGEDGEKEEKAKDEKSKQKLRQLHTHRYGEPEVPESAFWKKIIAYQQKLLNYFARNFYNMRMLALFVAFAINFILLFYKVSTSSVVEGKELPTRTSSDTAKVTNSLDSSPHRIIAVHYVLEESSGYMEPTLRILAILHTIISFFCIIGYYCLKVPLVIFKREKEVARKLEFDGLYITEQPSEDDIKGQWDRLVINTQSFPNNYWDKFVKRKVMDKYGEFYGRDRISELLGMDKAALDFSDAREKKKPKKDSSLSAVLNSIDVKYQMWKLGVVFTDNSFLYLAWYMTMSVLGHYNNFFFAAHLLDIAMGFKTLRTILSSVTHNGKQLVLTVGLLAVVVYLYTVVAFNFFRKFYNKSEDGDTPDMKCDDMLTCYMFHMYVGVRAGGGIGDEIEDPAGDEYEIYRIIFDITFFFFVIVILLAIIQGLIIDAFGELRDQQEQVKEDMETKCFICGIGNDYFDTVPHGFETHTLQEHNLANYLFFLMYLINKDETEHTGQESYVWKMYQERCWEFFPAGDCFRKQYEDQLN

Regarding `COc1ccc2c(c1)CN(CCCCC1(O)CC1)CCS2` [Compound 13d, 1-(4-(7-methoxy-2,3-dihydrobenzo[1,4-f]thiazepin-4(5H)-yl)butyl)cyclopropan-1-ol], the RyR2 effect class entry is recorded as “-” and the “effect on [Ca^2+]ER (R-CEPIA1er fluorescence), in words” value (from here on “effect on [Ca^2+]ER”) is given as “no significant RyR2-stabilizing effect”.

With `COc1ccc(OCCCNCCCCC2(O)CC2)cc1` [Compound 13b, 1-(4-((3-(4-methoxyphenoxy)propyl)amino)butyl)cyclopropan-1-ol], the RyR2 effect class result is given as “+++” and the EC50 is 81.5 nM.

As for `COc1ccc2c(c1)CN(CCCCN(CCCCC1(O)CC1)CCCCC1(O)CC1)CCS2` [Compound 14a, 1,1'-(((4-(7-Methoxy-2,3-dihydrobenzo[1,4-f]thiazepin-4(5H)-yl)butyl)azanediyl)bis(butane-4,1-diyl))bis(cyclopropan-1-ol)], the RyR2 effect class result was “+++”.

With `COc1ccc2c(c1)CN(Cc1ccc(C(=O)O)cc1)CCS2` [ARM210, reference compound], the RyR2 effect class entry is “++” and the “effect on [Ca^2+]ER” value was “significantly increased [Ca^2+]ER”.

`COc1ccc(SCCCNCCCCC2(O)CC2)cc1` [Compound 13c, 1-(4-((3-((4-Methoxyphenyl)thio)propyl)amino)butyl)cyclopropan-1-ol]: the RyR2 effect class result is reported as “++” and the EC50 was determined as 10.2 nM.

With `COc1ccc(SCCCN(CCCCC2(O)CC2)CCCCC2(O)CC2)cc1` [Compound 14c, 1,1'-(((3-((4-Methoxyphenyl)thio)propyl)azanediyl)bis(butane-4,1-diyl))bis(cyclopropan-1-ol)], the RyR2 effect class result is given as “+” and the concentration giving a half-maximal response (EC50) is 18.6 nM.

As to `COc1ccc2c(c1)CN(CCCCNCCCCC1(O)CC1)CCS2` [Compound 13a, 1-(4-((4-(7-Methoxy-2,3-dihydrobenzo[1,4-f]-thiazepin-4(5H)-yl)butyl)amino)butyl)cyclopropan-1-ol], the RyR2 effect class entry was “++”.

`COc1ccc2c(c1)CN(C(=O)C(=O)O)CCS2` [Compound S36, reference compound]: the RyR2 effect class entry is given as “+++” and the “effect on [Ca^2+]ER” value was “increase in R-CEPIA1er fluorescence”.
